The record followed here is US20080210128A1, “Optical Layer including mu-oxo-bridged boron-subphthalocyanine dimer” (ORIENT CHEMICAL INDUSTRIES, LTD., priority 2007, published 2008).

In brackets after ≈: the same amount, converted by molar mass. Where two headings read alike, the source gives them in different places.

For orientation: Solubility means the concentration that dissolves in the medium under given conditions.

A short description of series [1]: Solubility in methyl ethyl ketone. From the text:
Incidentally, a spectral photometer of UV-1700 available from Shimadzu Corporation was used.

A short description of series [2]: Absorption spectrum in chloroform (spectral photometer UV-1700). It is filed as physicochemical.
Series [3] in a line: Dissolution of colorant on preparing the coating agent. It is filed as physicochemical. The following applies: 0.5 parts by weight colorant in methyl ethyl ketone / cyclohexanone with polymethacrylate. The protocol: 0.1 parts by weight of the Compound obtained in the Manufacturing Example 1 and 15 parts by weigh of polymethacrylate were mixed and dissolved into 50 parts by weight of methyl ethyl ketone and 35 parts by weight of cyclohexanone by stirring, and liquid coating agent was prepared.
In Comparative Example 2, a thin layer was prepared by the same procedures as Example 1 except for using a coating agent prepared by using Intermediate Compound A-1 obtained in Manufacturing Example 1 instead of using Compound 1 used in Example 1. Incidentally, the additive amount of colorant to prepare a coating agent was changed to 0.5 parts by weight. […] Therefore, a coating agent was obtained as dispersion.

In series [1], {(C8H17O)3SubPcB}2O [Compound 3] yielded a Solubility of 83.2 mg/mL. In series [2], this compound returned a maximum absorption wavelength of 543 nm and a molar absorption coefficient of 87000 dm^3mol^−1cm^−1.

In series [1], `ClB1n2c3c4ccccc4c2N=c2c4ccccc4c(n21)=NC1=NC(=N3)c2ccccc21` [Intermediate Compound A-1, SubPcBCl, reference compound] showed a Solubility of 0.025 mg/mL (≈ 58 µM). Further, the “dissolution in coating agent” value in series [3] is given as “did not dissolve completely”. In series [2], the maximum absorption wavelength was 565 nm and the molar absorption coefficient was 51000 dm^3mol^−1cm^−1.

`c1ccc2c(c1)C1=Nc3c4ccccc4c4n3[B-]3(O[B-]56n7c8c9ccccc9c7N=c7c9ccccc9c(n75)=NC5=[N+]6C(=N8)c6ccccc65)n5c(c6ccccc6c5=N4)=NC2=[N+]13` (stereo not drawn) [Compound 1, (SubPcB)2O] had a Solubility in series [1] (solvent: methyl ethyl ketone) of 1.14 mg/mL (≈ 1410 µM). In series [2], the maximum absorption wavelength is reported as 532 nm and the molar absorption coefficient turned out to be 106000 dm^3mol^−1cm^−1.

In series [2], “SubPcBOH [Intermediate Compound B-1, reference compound]” came in with a maximum absorption wavelength of 562 nm and a molar absorption coefficient of 45000 dm^3mol^−1cm^−1.

In the case of (t-Bu3SubPcB)2O [Compound 2], the Solubility in series [1] (solvent: methyl ethyl ketone) was found to be 58.5 mg/mL. For the same compound, in series [2], the maximum absorption wavelength stood at 543 nm and the molar absorption coefficient came out at 61000 dm^3mol^−1cm^−1.
